Biological target: T1, human TAS1R2-WT (subunit alone) (Homo sapiens, UniProt Q8TE23)
T1 construct: expressed in transfected cells; host or cells: HEK293T-Gα16gust44
T1 sequence (Q8TE23 20-839): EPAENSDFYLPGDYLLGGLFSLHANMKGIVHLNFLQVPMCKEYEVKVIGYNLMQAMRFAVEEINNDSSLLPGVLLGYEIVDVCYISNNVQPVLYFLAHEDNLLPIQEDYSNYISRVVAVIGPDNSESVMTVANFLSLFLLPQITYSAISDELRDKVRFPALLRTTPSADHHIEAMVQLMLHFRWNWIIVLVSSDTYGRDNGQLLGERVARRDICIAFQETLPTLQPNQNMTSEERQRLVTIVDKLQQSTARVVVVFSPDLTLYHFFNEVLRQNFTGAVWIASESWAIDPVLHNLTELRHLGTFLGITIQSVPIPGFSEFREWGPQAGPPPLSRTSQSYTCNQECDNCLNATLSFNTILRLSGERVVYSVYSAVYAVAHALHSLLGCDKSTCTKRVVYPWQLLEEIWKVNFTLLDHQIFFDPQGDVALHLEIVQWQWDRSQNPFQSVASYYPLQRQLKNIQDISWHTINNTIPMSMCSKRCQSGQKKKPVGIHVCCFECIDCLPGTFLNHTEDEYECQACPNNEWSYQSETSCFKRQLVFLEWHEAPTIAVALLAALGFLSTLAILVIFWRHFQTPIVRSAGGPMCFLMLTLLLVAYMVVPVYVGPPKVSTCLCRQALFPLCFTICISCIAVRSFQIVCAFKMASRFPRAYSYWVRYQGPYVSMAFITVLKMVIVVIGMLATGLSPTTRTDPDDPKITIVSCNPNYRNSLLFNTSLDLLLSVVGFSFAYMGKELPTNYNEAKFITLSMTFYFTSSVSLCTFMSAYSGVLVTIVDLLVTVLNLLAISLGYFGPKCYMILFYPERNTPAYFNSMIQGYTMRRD
Assay: Calcium mobilisation assay, TAS1R2-WT subunit alone
Format: cell-based
Text: The coding sequences for TAS1R2 and TAS1R3 were commercially synthesised, and the human codon was optimised for expression in human cells. The coding sequences of human TAS1R2 and TAS1R3 were subcloned and inserted into the mammalian expression vectors pcDNA6/myc-HisA and pcDNA4/myc-HisA (Invitrogen; Thermo Fisher Scientific; Illkirch, France) between the EcoRI and NotI restriction sites, generating the plasmids pcDNA6-TAS1R2 and pcDNA4-TAS1R3, respectively. To increase protein expression in mammalian cells, an upstream start codon was used, which was a sequence called MAX, corresponding to the QBI SP163 element also described in pcDNA4-HisMax (Invitrogen; Thermo Fisher Scientific; Illkirch, France). To measure the expression level of the receptor by immunohistochemistry, we used the FLAG sequence ([…]) in the C-terminal position, which encodes the FLAG tag epitope. […]
The HEK293T cells were kindly provided by Jay P. Slack (Givaudan Flavors Corporation; Cincinnati, OH, USA). […] The fluorescence intensity was measured for 90 s (excitation 488 nm, emission 510 nm) in an automated fluorometric FlexStation®3 Multi-Mode microplate reader (Molecular Devices; San Jose, CA, USA). […] The Ca^2+ changes were expressed as fractional changes in fluorescent light intensity: ΔF/F = (F − F0)/F0, where F was the fluorescent light intensity at each point, and F0 was the value of emitted fluorescent light prior to stimulus application. To calculate dose–response relationships, the changes in fluorescence upon stimulus application were averaged, mock-subtracted and baseline-corrected. […] The half-maximal effective concentrations (EC50 values) and maximal signal amplitudes were calculated using SigmaPlot software (version 15.0) (Systat Software; San Jose, CA, USA).
For in vitro calcium mobilisation assay performed on hTAS1R2-SNPs, hTAS1R3-SNPs and mTAS1R3-I60T, 6 to 7 concentrations were tested for each sweet compound, plus buffer alone. All concentration–receptor combinations were measured in duplicate, and each experiment was repeated at least 4 times (8 wells/concentration). […]

C=C(C)[C@@H]1CC=C(/C=N/O)CC1 [Perillartine, perillartine]
EC50: 90 ± 17 µM
R1 = Variant EC50/WT EC50: 1.0
Max ΔF/F0 (maximal signal amplitude): 1.06 ± 0.06

Source: article PMC11945486, “TAS1R2/TAS1R3 Single-Nucleotide Polymorphisms Affect Sweet Taste Receptor Activation by Sweeteners: The SWEET Project” (Nutrients, 2025)
